Measurements: ChEMBL document CHEMBL1201862, “PubChem BioAssay data set” (2004)
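Where inhibition never reached the appropriate level, the endpoint shown equals the highest concentration tested. Otherwise, values were interpolated linearly from a five-concentration, 48-hour dose response in 96-well plates. GI50: concentration for 50% inhibition of growth.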 Activity calls are given as the source filed them. Rule as the data show it: active = GI50 up to about 1.1 µM and inactive = higher.

Legend:
Experiment in all cases: inhibition of tumour cell growth, NCI panel, 48 h
786-0 = test system: 786-0
ACHN = test system: ACHN
CAKI-1 = test system: CAKI-1
COLO 205 = test system: COLO 205
HCC 2998 = test system: HCC 2998
HOP-62 = test system: HOP-62
HOP-92 = test system: HOP-92
KM12 = test system: KM12
LOX IMVI = test system: LOX IMVI
MOLT-4 = test system: MOLT-4
NCI-H460 = test system: NCI-H460
NCI-H522 = test system: NCI-H522
OVCAR-4 = test system: OVCAR-4
SF-295 = test system: SF-295
SF-539 = test system: SF-539
SK-MEL-2 = test system: SK-MEL-2
SNB-75 = test system: SNB-75
UACC-62 = test system: UACC-62
HL-60 = test system: HL-60

SMILES | GI50 (786-0) | GI50 (ACHN) | GI50 (CAKI-1) | GI50 (COLO 205) | GI50 (HCC 2998) | GI50 (HOP-62) | GI50 (HOP-92) | GI50 (KM12) | GI50 (LOX IMVI) | GI50 (MOLT-4) | GI50 (NCI-H460) | GI50 (NCI-H522) | GI50 (OVCAR-4) | GI50 (SF-295) | GI50 (SF-539) | GI50 (SK-MEL-2) | GI50 (SNB-75) | GI50 (UACC-62) | GI50 (HL-60)
c1ccc2c(C3NCCc4nc[nH]c43)cccc2c1 (stereo not given) | > 100 µM (inactive) | > 100 µM (inactive) | > 100 µM (inactive) | > 100 µM (inactive) | > 100 µM (inactive) | > 100 µM (inactive) | > 100 µM (inactive) | > 100 µM (inactive) | > 100 µM (inactive) | > 100 µM (inactive) | > 100 µM (inactive) | 98.4 µM (inactive) | > 100 µM (inactive) | > 100 µM (inactive) | > 100 µM (inactive) | > 100 µM (inactive) | > 100 µM (inactive) | > 100 µM (inactive) | 
COc1ccc(/C(=N\NC(=S)NN)C(c2ccc(OC)cc2)C2C(=O)Oc3ccccc32)cc1 (stereo not given) | > 10 µM (inactive) | > 10 µM (inactive) | > 10 µM (inactive) | > 10 µM (inactive) | 9.31 µM (inactive) | > 10 µM (inactive) | > 10 µM (inactive) | > 10 µM (inactive) | > 10 µM (inactive) |  | > 10 µM (inactive) | 65.5 µM (inactive) | > 10 µM (inactive) | > 10 µM (inactive) | > 10 µM (inactive) | > 10 µM (inactive) | > 10 µM (inactive) | > 10 µM (inactive) | > 10 µM (inactive)
Cc1nsc2cc(Cl)n(C)c(=O)c12 | > 100 µM (inactive) | > 100 µM (inactive) | 40.4 µM (inactive) | > 100 µM (inactive) | 0.991 µM (active) | > 100 µM (inactive) | 59.7 µM (inactive) | > 100 µM (inactive) | > 100 µM (inactive) | > 100 µM (inactive) | > 100 µM (inactive) | 24.8 µM (inactive) | > 100 µM (inactive) |  | > 100 µM (inactive) | > 100 µM (inactive) | 66.4 µM (inactive) |  | > 100 µM (inactive)
COC12CCC(C(C(=O)c3ccccc3)=C1C(=O)c1ccccc1)C(O)C2 (stereo not given) | > 100 µM (inactive) |  | > 100 µM (inactive) | > 100 µM (inactive) | > 100 µM (inactive) | > 100 µM (inactive) | > 100 µM (inactive) | > 100 µM (inactive) |  | > 100 µM (inactive) |  | > 100 µM (inactive) | > 100 µM (inactive) | > 100 µM (inactive) | > 100 µM (inactive) | > 100 µM (inactive) | > 100 µM (inactive) | > 100 µM (inactive) | > 100 µM (inactive)
Cc1c(C(=O)CSc2nc3ccccc3c(=O)n2-c2ccccc2)c(=O)n(-c2ccccc2)n1C | 19.9 µM (inactive) | 35.2 µM (inactive) | 0.185 µM (active) | > 100 µM (inactive) | > 100 µM (inactive) | 31.4 µM (inactive) | 24.3 µM (inactive) | 54.7 µM (inactive) | 42.1 µM (inactive) | > 100 µM (inactive) | 37.8 µM (inactive) | 27.2 µM (inactive) | > 100 µM (inactive) | 28.8 µM (inactive) | 63.2 µM (inactive) | > 100 µM (inactive) | 60.8 µM (inactive) |  | > 100 µM (inactive)
CC(=O)OCC1OC(n2ccc(=O)[nH]c2=O)C(OC(C)=O)C(OC(C)=O)C1OC(C)=O (stereo not given) | > 100 µM (inactive) | > 100 µM (inactive) | > 100 µM (inactive) | > 100 µM (inactive) | > 100 µM (inactive) | > 100 µM (inactive) | > 100 µM (inactive) | > 100 µM (inactive) | > 100 µM (inactive) | > 10 µM (inactive) | > 100 µM (inactive) | > 100 µM (inactive) | > 100 µM (inactive) | > 100 µM (inactive) |  | > 100 µM (inactive) | 50.6 µM (inactive) | > 100 µM (inactive) | > 10 µM (inactive)
